ChEMBL document CHEMBL4311969, “Polygala tenuifolia-Acori tatarinowii herbal pair as an inspiration for substituted cinnamic α-asaronol esters: Design, synthesis, anticonvulsant activity, and inhibition of lactate dehydrogenase study” (Eur J Med Chem, 2019)
Where “and” joins values, the source holds several entries; their conditions need not be identical. Equal entries are not always repeated. Calls of active or inactive are those of the source. No cut-off for these calls is given here.

Columns and labels:
Mus musculus [1] = test: Anticonvulsant activity in Kunming mouse assessed as reduction in ScPTZ-induced seizure at 100 mg/kg, ip administered 0.25 to 2 hrs before ScPTZ stimulation relative to control; assay type: functional; parameters: scale not given: the % may be the effect or the level left
Mus musculus [2] = test: Anticonvulsant activity in Kunming mouse assessed as reduction in ScPTZ-induced tonic seizure rate at 300 mg/kg, ip administered 0.5 hrs before ScPTZ stimulation relative to control; assay type: functional; parameters: scale not given: the % may be the effect or the level left
Mus musculus [3] = test: Anticonvulsant activity in Kunming mouse assessed as reduction in Sc3-MP-induced seizure at 300 mg/kg, ip administered 0.25 and 1 hrs before Sc3-MP stimulation relative to control; assay type: functional, organism-based
[4] = Neurotoxicity against ip dosed Kunming mouse assessed as time remained in rod measured at 0.5 hrs by rotarod test; assay type: toxicity, organism-based; settings: in vivo
[5] = Protective index, ratio of TD50 for neurotoxicity against ip dosed Kunming mouse assessed as time remained in rod measured at 0.5 hrs by rotarod test to ED50 for anticonvulsant activity in ip dosed Kunming mouse assessed as MES-induced hind limb extension administered 0.5 hrs; assay type: toxicity, organism-based; settings: in vivo, read-out: PI
[6] = Protective index, ratio of TD50 for neurotoxicity against ip dosed Kunming mouse assessed as time remained in rod measured at 0.5 hrs by rotarod test to ED50 for anticonvulsant activity in ip dosed Kunming mouse assessed as reduction in ScPTZ-induced seizure administered 0.5 hrs before ScPTZ stimulation; assay type: toxicity, organism-based; settings: in vivo, read-out: PI
Homo sapiens [7] = organism: Homo sapiens; test: Inhibition of human LDH5 at 0.5 mM using sodium pyruvate as substrate by UV-VIS spectrophotometry method relative to control
Homo sapiens [8] = organism: Homo sapiens; test: Inhibition of human LDH1 at 0.5 mM using sodium pyruvate as substrate measured for 60 sec for every 5 mins by LC/MS-MS analysis
[9] = target: GABA-A receptor; alpha-1/beta-2/gamma-2 (Homo sapiens) (UniProt P14867+P47870+P18507); test: Agonist activity at GABA alpha1beta2gamma2 receptor in human HEK293T at 3.3 to 300 uM at -50 mV holding potential by whole cell voltage clamp assay relative to control; assay type: protein-complex assay
[10] = AUC in Sprague-Dawley rat at 20 mg/kg, po measured upto 480 mins by LC-MS/MS analysis; assay type: ADME, organism-based; parameters: time < 8 hr, dose 20 mg/kg, route oral; settings: in vivo
[11] = Volume of distribution at steady state in Sprague-Dawley rat at 50 mg/kg, po measured upto 480 mins by LC-MS/MS analysis; assay type: ADME, organism-based; settings: in vivo, 8 h
[12] = AUC in Sprague-Dawley rat at 50 mg/kg, po measured upto 480 mins by LC-MS/MS analysis; assay type: ADME, organism-based; parameters: time < 8 hr, dose 50 mg/kg, route oral; settings: in vivo
[13] = Oral bioavailability in Sprague-Dawley rat at 50 mg/kg measured upto 480 mins by LC-MS/MS analysis; assay type: ADME, organism-based; settings: in vivo
[14] = Cmax in Sprague-Dawley rat at 100 mg/kg, po measured upto 480 mins by LC-MS/MS analysis; assay type: ADME, organism-based; parameters: dose 100 mg/kg, route oral; settings: in vivo
[15] = Drug uptake in Sprague-Dawley rat brain at 50 mg/kg, po; assay type: ADME, organism-based; settings: in vivo
[16] = Drug uptake in Sprague-Dawley rat kidney at 50 mg/kg, po; assay type: ADME, organism-based; settings: in vivo
[17] = Drug uptake in Sprague-Dawley rat spleen at 50 mg/kg, po; assay type: ADME, organism-based; settings: in vivo
[18] = Drug metabolism in Sprague-Dawley rat assessed as retention time by HPLC/MS analysis; assay type: ADME
[19] = Tmax in Sprague-Dawley rat heart at 50 mg/kg, po; assay type: ADME, organism-based
[20] = Tmax in Sprague-Dawley rat brain at 50 mg/kg, po; assay type: ADME, organism-based
[21] = Tmax in Sprague-Dawley rat kidney at 50 mg/kg, po; assay type: ADME, organism-based
Mus musculus [22] = test: Anticonvulsant activity in Kunming mouse assessed as reduction in ScPTZ-induced seizure at 100 mg/kg, ip administered 0.5 hrs before ScPTZ stimulation relative to control; assay type: functional; parameters: scale not given: the % may be the effect or the level left
Mus musculus [23] = test: Potency index, ratio of ED50 of valproic acid to ED50 of compound anticonvulsant activity in ip dosed Kunming mouse assessed as MES-induced hind limb extension administered 0.5 hrs before MES stimulation; assay type: functional
Mus musculus [24] = test: Potency index, ratio of ED50 of stiripentol to ED50 of compound anticonvulsant activity in ip dosed Kunming mouse assessed as MES-induced hind limb extension administered 0.5 hrs before MES stimulation; assay type: functional
Mus musculus [25] = test: Potency index, ratio of ED50 of carbamazepine to ED50 of compound anticonvulsant activity in ip dosed Kunming mouse assessed as MES-induced hind limb extension administered 0.5 hrs before MES stimulation; assay type: functional
[26] = Noncompetitive inhibition of human LDH1 at 0.5 mM using sodium pyruvate as substrate by UV-VIS spectrophotometry method based Lineweaver-Burk plot analysis
Mus musculus [27] = test: Anticonvulsant activity in Kunming mouse assessed as MES-induced hind limb extension at 100 mg/kg, ip administered 0. 5 hrs before MES stimulation relative to control; assay type: functional

Row | Structure (SMILES) | Activity (Mus musculus [1]) | Activity (Mus musculus [2]) | Activity (Mus musculus [3]) | TD50 at 0.5 h [4] | selectivity ratio at 0.5 h [5] | selectivity ratio at 0.5 h [6] | inhibition (Homo sapiens [7]) | inhibition (Homo sapiens [8]) | AUC at 8 h [10] | Vdss [11] | AUC at 8 h [12] | bioavailability [13] | Cmax [14] | other results
1 | COc1cc(OC)c(OC)cc1/C=C/COC(=O)/C=C/c1c(OC)cc(OC)c(OC)c1OC | 25% | 25% | Active | 1970 µmol/kg and 936 mg/kg | 27.7 | 6.1 | 27% | 21% | 1300 ng·h/mL | 10.17 L/kg | 2610 ng·h/mL | 34.8% | 3980 ng/mL | %max [9]: 356%; Drug uptake [15]: Active; Drug uptake [16]: Active; Drug uptake [17]: Active; Retention_time [18]: 40.6 min; Tmax [19]: 1 h; Tmax [20]: 1 h; Tmax [21]: 1 h
2 | COc1cc(OC)c(OC)cc1/C=C/COC(=O)/C=C/c1cc(OC)c(OC)c(OC)c1OC | 25% | 0% | Active | > 2110 µmol/kg and > 1000 mg/kg | > 32.4 | > 6.4 | 15% | 18% | 1210 ng·h/mL | 9.26 L/kg | 2310 ng·h/mL | 31.4% | 3770 ng/mL | Activity (Mus musculus [22]): 100%; Ratio ED50 (Mus musculus [23]): 23.1; Ratio ED50 (Mus musculus [24]): 3.96; Ratio ED50 (Mus musculus [25]): 1.17; Ki [26]: 1770 nM; Activity (Mus musculus [27]): 100%
